Reference: US20240376094A2, “SELECTIVE BCL-XL PROTAC COMPOUNDS AND METHODS OF USE” (Les Laboratoires Servier, priority 2021, published 2024)

Experiments:
Format in all cases: cell-based
MOLT-4 cells [1] = assay: MOLT-4 cell viability, MTT assay; details: Homo sapiens, MOLT-4, 48 h
From the text: The MTT colorimetric assay is based on the mitochondrial reduction of tetrazolium salt by living cells. The viable cell number is proportional to the production of formazan salts, which can be read spectrophotometrically at 540 nm. The CTG luminescent assay (CellTiter GLO, Promega) is based on a reagent which lyses cells and measures total adenosine triphosphate (ATP) content. The viable cell number is proportional to the production of ATP.
MOLT-4 cells were purchased from ATCC and cultivated in RPMI 1640 supplemented with 10% heat inactivated fetal bovine serum, penicillin (100 IU/mi), streptomycin (100 μg/ml) and L-glutamine (2 mM). Cells were cultured at 37° C. in a humidified atmosphere containing 5% […].
For MTT assay, cells were seeded in 96 microwell plates (150 μL per well) and exposed to the compounds for 48 h (3.16 fold serially diluted; 9 concentrations each, triplicates). At the end of incubation time, 15 μL of MTT solution (5 mg/ml) were added per well and the cells were incubated for another 4 h. Then, 100 μL of 10% Sodium Dodecyl Sulfate (SDS)/HCl 10 mM were added per well and the plate was incubated overnight, before measurement of optical density at 540 nm.
IC50, were calculated using standard four-parametric curve fitting. IC50 is defined as the compound concentration at which the MTT or CTG signal is reduced to 50% of that measured for the control. Results shown in Table 14 represent the mean of at least 2 independent experiments.

MOLT-4 cells [2] = assay: MOLT-4 cell viability, CTG assay; details: Homo sapiens, MOLT-4, 48 h
In short: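 Viability read as total ATP luminescence (CTG) after 48 h compound treatment, 11 points at 5-fold spacing in triplicate, cells in RPMI 1640/10% FBS. IC50 is the concentration halving signal relative to control, four-parameter fit, averaged over at least 2 experiments.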

Bcl-xL = molecular target: T1, Bcl-xL (Homo sapiens, UniProt Q07817); assay: HCT116 Bcl-xL degradation, capillary-based immunoassay (WES); details: for remaining activity at 0.01 µM / remaining activity at 0.1 µM: HCT-116, 24 h, % of untreated cells; for remaining activity at 0.01 µM: HCT116, 10 nM; for remaining activity at 0.1 µM: HCT116, 100 nM; for DC50: HCT116, 24 h, 9-point serial dilution
T1 construct: Measured levels of Bcl-xL protein of HCT116 cells treated with the tested compounds; host or cells: HCT116
T1 sequence (Q07817 whole entry): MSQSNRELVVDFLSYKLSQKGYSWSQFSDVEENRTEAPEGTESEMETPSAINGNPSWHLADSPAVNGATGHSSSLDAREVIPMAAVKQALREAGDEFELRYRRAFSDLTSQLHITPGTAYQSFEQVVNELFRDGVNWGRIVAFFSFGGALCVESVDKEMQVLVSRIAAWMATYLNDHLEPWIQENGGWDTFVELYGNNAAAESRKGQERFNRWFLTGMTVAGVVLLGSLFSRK
In short: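 Bcl-xL protein level by capillary WES immunoassay in HCT116 lysates, as % of untreated after cofilin normalization. Compound exposure was 24 h at 10 and 100 nM and/or a 9-point series, in quadruplicate. Four-parameter fitting gave the DC50.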

Row | Structure (SMILES) | IC50 (MOLT-4 cells [1]) [nM] | IC50 (MOLT-4 cells [2]) [nM] | remaining activity at 0.01 µM (Bcl-xL) [%] | remaining activity at 0.1 µM (Bcl-xL) [%] | DC50 (Bcl-xL) [nM]
1 | Cc1c(Nc2nc3ccccc3s2)nnc2c1CCCN2c1ccc(-c2cnn(CC34CC5(C)CC(C)(C3)CC(OCCN(C)CCCCCCOc3ccc6c(c3)C(=O)N(C3CCC(=O)NC3=O)C6=O)(C5)C4)c2C)c(C(=O)O)n1 (stereo not drawn) [Example 14, 6-[3-(1,3-benzothiazol-2-ylamino)-4-methyl-6,7-dihydro-5H-pyrido[2,3-c]pyridazin-8-yl]-3-[1-[[3-[2-[6-[2-(2,6-dioxo-3-piperidyl)-1,3-dioxo-isoindolin-5-yl]oxyhexyl-methyl-amino]ethoxy]-5,7-dimethyl-1-adamantyl]methyl]-5-methyl-pyrazol-4-yl]pyridine-2-carboxylic acid] | 1.15 | 3.51 | 81 | 86 | 
2 | Cc1cc(N(CCCCCn2cc(COCCOCCNC(=O)COc3cccc4c3C(=O)N(C3CCC(=O)NC3=O)C4=O)nn2)c2ccc(-c3cnn(CC45CC6(C)CC(C)(C4)CC(OCCN(C)C)(C6)C5)c3C)c(C(=O)O)n2)nnc1Nc1nc2ccccc2s1 (stereo not drawn) [Example 65, 6-[[6-(1,3-benzothiazol-2-ylamino)-5-methyl-pyridazin-3-yl]-[5-[4-[2-[2-[[2-[2-(2,6-dioxo-3-piperidyl)-1,3-dioxo-isoindolin-4-yl]oxyacetyl]amino]ethoxy]ethoxymethyl]triazol-1-yl]pentyl]amino]-3-[1-[[3-[2-(dimethylamino)ethoxy]-5,7-dimethyl-1-adamantyl]methyl]-5-methyl-pyrazol-4-yl]pyridine-2-carboxylic acid] | 156 | 140 | 90 | 78 | 
3 | Cc1ncsc1-c1ccc([C@H](C)NC(=O)C2C[C@@H](O)CN2C(=O)C(NC(=O)CCCCCN(C)CCOC23CC4(C)CC(C)(CC(Cn5ncc(-c6ccc(N7CCCc8c7nnc(Nc7nc9ccccc9s7)c8C)nc6C(=O)O)c5C)(C4)C2)C3)C(C)(C)C)cc1 (stereo in doubt) [Example 8, 6-[3-(1,3-benzothiazol-2-ylamino)-4-methyl-6,7-dihydro-5H-pyrido[2,3-c]pyridazin-8-yl]-3-[1-[[3-[2-[[6-[[(1S)-1-[(2S,4R)-4-hydroxy-2-[[(1S)-1-[4-(4-methylthiazol-5-yl)phenyl]ethyl]carbamoyl]pyrrolidine-1-carbonyl]-2,2-dimethyl-propyl]amino]-6-oxo-hexyl]-methyl-amino]ethoxy]-5,7-dimethyl-1-adamantyl]methyl]-5-methyl-pyrazol-4-yl]pyridine-2-carboxylic acid] | 6.56 | 34.3 | 54 | 37 | 
4 | Cc1ncsc1-c1ccc(CNC(=O)[C@@H]2C[C@@H](O)CN2C(=O)[C@@H](NC(=O)CCC(=O)N2CCN(CC#Cc3ccc(OCCCc4sc(N5CCCc6c5nnc(Nc5nc7ccccc7s5)c6C)nc4C(=O)O)c(F)c3)CC2)C(C)(C)C)cc1 [Example 21, 2-[3-(1,3-benzothiazol-2-ylamino)-4-methyl-6,7-dihydro-5H-pyrido[2,3-c]pyridazin-8-yl]-5-[3-[2-fluoro-4-[3-[4-[4-[[(1S)-1-[(2S,4R)-4-hydroxy-2-[[4-(4-methylthiazol-5-yl)phenyl]methylcarbamoyl]pyrrolidine-1-carbonyl]-2,2-dimethyl-propyl]amino]-4-oxo-butanoyl]piperazin-1-yl]prop-1-ynyl]phenoxy]propyl]thiazole-4-carboxylic acid] | 11.5 | 23.6 | 73 | 35 | 
5 | Cc1cc(N(CCCCCn2cc(CCCCCCCNC(=O)COc3cccc4c3C(=O)N(C3CCC(=O)NC3=O)C4=O)nn2)c2ccc(-c3cnn(CC45CC6(C)CC(C)(C4)CC(OCCN(C)C)(C6)C5)c3C)c(C(=O)O)n2)nnc1Nc1nc2ccccc2s1 (stereo not drawn) [Example 64, 6-[[6-(1,3-benzothiazol-2-ylamino)-5-methyl-pyridazin-3-yl]-[5-[4-[7-[[2-[2-(2,6-dioxo-3-piperidyl)-1,3-dioxo-isoindolin-4-yl]oxyacetyl]amino]heptyl]triazol-1-yl]pentyl]amino]-3-[1-[[3-[2-(dimethylamino)ethoxy]-5,7-dimethyl-1-adamantyl]methyl]-5-methyl-pyrazol-4-yl]pyridine-2-carboxylic acid] | 92.8 | 118 | 59 | 40 | 46.2
6 | CNCC#Cc1ccc(OCCCc2sc(N(CCCc3cn(CCCCCCCCNC(=O)COc4cccc5c4C(=O)N(C4CCC(=O)NC4=O)C5=O)nn3)c3cc(C)c(Nc4nc5ccccc5s4)nn3)nc2C(=O)O)c(F)c1 (stereo not drawn) [Example 30, 2-[[6-(1,3-benzothiazol-2-ylamino)-5-methyl-pyridazin-3-yl]-[3-[1-[8-[[2-[2-(2,6-dioxo-3-piperidyl)-1,3-dioxo-isoindolin-4-yl]oxyacetyl]amino]octyl]triazol-4-yl]propyl]amino]-5-[3-[2-fluoro-4-[3-(methylamino)prop-1-ynyl]phenoxy]propyl]thiazole-4-carboxylic acid] | 133 | 477 | 118 | 73 | 

More lines, now with the values ahead:

Row | IC50 (MOLT-4 cells [1]) [nM] | IC50 (MOLT-4 cells [2]) [nM] | remaining activity at 0.01 µM (Bcl-xL) [%] | remaining activity at 0.1 µM (Bcl-xL) [%] | DC50 (Bcl-xL) [nM] | Structure (SMILES)
7 | 13.5 | 33.9 | 79 | 57 |  | Cc1c(Nc2nc3ccccc3s2)nnc2c1CCCN2c1ccc(-c2cnn(CC34CC5(C)CC(C)(C3)CC(OCCN(C)CCOCCOCCOCCOCCOCCNc3cccc6c3C(=O)N(C3CCC(=O)NC3=O)C6=O)(C5)C4)c2C)c(C(=O)O)n1 (stereo not drawn) [Example 13, 6-[3-(1,3-benzothiazol-2-ylamino)-4-methyl-6,7-dihydro-5H-pyrido[2,3-c]pyridazin-8-yl]-3-[1-[[3-[2-[2-[2-[2-[2-[2-[2-[[2-(2,6-dioxo-3-piperidyl)-1,3-dioxo-isoindolin-4-yl]amino]ethoxy]ethoxy]ethoxy]ethoxy]ethoxy]ethyl-methyl-amino]ethoxy]-5,7-dimethyl-1-adamantyl]methyl]-5-methyl-pyrazol-4-yl]pyridine-2-carboxylic acid]
8 | 4.29 | 20.3 | 83 | 60 |  | Cc1c(Nc2nc3ccccc3s2)nnc2c1CCCN2c1ccc(-c2cnn(CC34CC5(C)CC(C)(C3)CC(OCCN(C)CCOCCOCCOCCNc3cccc6c3C(=O)N(C3CCC(=O)NC3=O)C6=O)(C5)C4)c2C)c(C(=O)O)n1 (stereo not drawn) [Example 11, 6-[3-(1,3-benzothiazol-2-ylamino)-4-methyl-6,7-dihydro-5H-pyrido[2,3-c]pyridazin-8-yl]-3-[1-[[3-[2-[2-[2-[2-[2-[[2-(2,6-dioxo-3-piperidyl)-1,3-dioxo-isoindolin-4-yl]amino]ethoxy]ethoxy]ethoxy]ethyl-methyl-amino]ethoxy]-5,7-dimethyl-1-adamantyl]methyl]-5-methyl-pyrazol-4-yl]pyridine-2-carboxylic acid]
9 | 5.21 | 12.9 | 61 | 41 | 10.5 | Cc1c(Nc2nc3ccccc3s2)nnc2c1CCCN2c1ccc(-c2cnn(CC34CC5(C)CC(C)(C3)CC(OCCN(C)CCOCCNc3cccc6c3C(=O)N(C3CCC(=O)NC3=O)C6=O)(C5)C4)c2C)c(C(=O)O)n1 (stereo not drawn) [Example 9, 6-[3-(1,3-benzothiazol-2-ylamino)-4-methyl-6,7-dihydro-5H-pyrido[2,3-c]pyridazin-8-yl]-3-[1-[[3-[2-[2-[2-[[2-(2,6-dioxo-3-piperidyl)-1,3-dioxo-isoindolin-4-yl]amino]ethoxy]ethyl-methyl-amino]ethoxy]-5,7-dimethyl-1-adamantyl]methyl]-5-methyl-pyrazol-4-yl]pyridine-2-carboxylic acid]
10 | 9.49 | 19.9 | 69 | 69 |  | Cc1c(Nc2nc3ccccc3s2)nnc2c1CCCN2c1ccc(-c2cnn(CC34CC5(C)CC(C)(C3)CC(OCCN(C)CCOCCOCCNc3cccc6c3C(=O)N(C3CCC(=O)NC3=O)C6=O)(C5)C4)c2C)c(C(=O)O)n1 (stereo not drawn) [Example 12, 6-[3-(1,3-benzothiazol-2-ylamino)-4-methyl-6,7-dihydro-5H-pyrido[2,3-c]pyridazin-8-yl]-3-[1-[[3-[2-[2-[2-[2-[[2-(2,6-dioxo-3-piperidyl)-1,3-dioxo-isoindolin-4-yl]amino]ethoxy]ethoxy]ethyl-methyl-amino]ethoxy]-5,7-dimethyl-1-adamantyl]methyl]-5-methyl-pyrazol-4-yl]pyridine-2-carboxylic acid]
